Data from paper PMC3608752 (Annals of neurology, 2013).

Molecular target: T1, PH20 hyaluronidase (bovine testicular hyaluronidase, BTH/PH20) (Bos taurus, UniProt Q2YDK3)
T1 sequence (Q2YDK3 36-553): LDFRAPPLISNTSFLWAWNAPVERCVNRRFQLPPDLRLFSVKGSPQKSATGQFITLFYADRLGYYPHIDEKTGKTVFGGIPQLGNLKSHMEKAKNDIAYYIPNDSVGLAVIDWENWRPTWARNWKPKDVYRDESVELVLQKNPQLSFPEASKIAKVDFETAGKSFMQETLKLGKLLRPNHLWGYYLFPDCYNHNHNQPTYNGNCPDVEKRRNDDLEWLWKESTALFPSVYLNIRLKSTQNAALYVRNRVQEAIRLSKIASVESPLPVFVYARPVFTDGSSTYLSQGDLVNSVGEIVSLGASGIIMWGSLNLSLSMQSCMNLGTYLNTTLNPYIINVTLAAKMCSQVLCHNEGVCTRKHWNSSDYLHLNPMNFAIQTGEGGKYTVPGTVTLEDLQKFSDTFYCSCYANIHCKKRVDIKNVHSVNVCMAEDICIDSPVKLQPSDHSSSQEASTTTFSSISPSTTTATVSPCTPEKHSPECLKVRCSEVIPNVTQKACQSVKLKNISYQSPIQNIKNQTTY
Type: biochemical

- IC50: ~33 µM
Structure (SMILES): CCCCCCCCCCCCCCCC(=O)OC[C@H](O)[C@H]1OC(=O)C(O)=C1O [VCPAL, 6-O-Palmitoyl-L-ascorbic acid]
